Data published in patent publication US11072614B2, “Polymorphs of sepiapterin and salts thereof” (PTC Therapeutics MP, Inc., priority 2016, dated 2021).
Each block holds one molecule with its values, some of them ahead of it.

Tests used:
Assay type in all cases: physicochemical
[1] = Storage stability study of solid forms, HPLC purity (Example 11)
Procedure: (§1) Form A and F samples were placed in chambers with silica gel to remove water (the relative humidity was measured to be ˜10% RH) at different temperatures. Form D samples were placed in chambers with water (relative humidity was estimated to be ˜100% RH) at different temperatures.
(§2) The HPLC purities and XRD patterns were obtained for each of Form A/F/D samples stored at various temperatures.

[2] = Storage stability study of solid forms, form change by XRD (Example 11)
Procedure: For X-ray powder diffraction analysis, a PANalytical Empyrean X-ray powder diffractometer was used. The parameters are as follows:
as §1, §2

[3] = Storage stability of polymorphs, HPLC sepiapterin and impurity profile (Example 12); set-up: Impurity RRT 1.06 / Impurity RRT 1.08 / Impurity RRT 1.17 / Impurity RRT 1.21 / Impurity RRT 1.25 / Impurity RRT 0.62 / Impurity RRT 0.89 / Impurity RRT 0.95 / Impurity RRT 0.60: unit not given here; conditions: for stability compared with polymorph A (in words): storage at RT, 35° C., 50° C., 1 w and 4 w
Procedure: Samples of sepiapterin free base polymorph Forms D, F, and A were stored at room temperature (RT), 35° C., and 50° C. The samples were analyzed by HPLC at 1 week and 4 week intervals. The HPLC parameters were as follows: [table]

[4] = Physical form stability to grinding and sieving (XRD before and after)
Procedure: A sample of sepiapterin free base was obtained commercially. […] The sepiapterin sample contained particles with an average particle size over 100 μm. The XRD pattern was determined before and after grinding to reduce the particle size such that it passes through a 140 mesh screen. This polymorph of sepiapterin free base is referred to as Form A herein.

[5] = 35° C., 100% RH, storage 1 week
[6] = 35° C., 100% RH, storage 4 weeks
[7] = 50° C., 100% RH, storage 1 week
[8] = 50° C., 100% RH, storage 4 weeks
[9] = 35° C., 10% RH, storage 4 weeks
[10] = 50° C., 10% RH, storage 4 weeks
[11] = 35° C./10% RH, 1 w, listed as Polymorph F
[12] = 35° C./10% RH, 4 w, listed as Polymorph F
[13] = 50° C./10% RH, 1 w, listed as Polymorph F
[14] = 50° C./10% RH, 4 w, listed as Polymorph F
[15] = RT/10% RH, 1 w, listed as Polymorph F
[16] = RT/10% RH, 4 w, listed as Polymorph F

% of Initial [1, 5]: 99.7%
Purity (area %) [1, 5]: 98.8 area %
% of Initial [1, 6]: 99.6%
Purity (area %) [1, 6]: 98.7 area %
% of Initial [1, 7]: 99.3%
Purity (area %) [1, 7]: 98.5 area %
% of Initial [1, 8]: 98.5%
Purity (area %) [1, 8]: 97.7 area %
% of Initial ([1]; RT, 100% RH, storage 1 week): 99.9%
Purity (area %) ([1]; RT, 100% RH, storage 1 week): 99.0 area %
% of Initial ([1]; RT, 100% RH, storage 4 weeks): 99.8%
Purity (area %) ([1]; RT, 100% RH, storage 4 weeks): 98.9 area %
Form change [2, 5]: No
Form change [2, 6]: No
Form change [2, 7]: No
Form change [2, 8]: No
Form change ([2]; RT, 100% RH, storage 1 week): No
Form change ([2]; RT, 100% RH, storage 4 weeks): No
Impurity RRT 0.62 ([3]; 35° C./100% RH, 1 w): <0.05
Impurity RRT 0.95 ([3]; 35° C./100% RH, 1 w): 0.86
Impurity RRT 1.08 ([3]; 35° C./100% RH, 1 w): 0.14
Impurity RRT 1.17 ([3]; 35° C./100% RH, 1 w): 0.17
Sepiapterin RRT 1.00 (amount of sepiapterin) ([3]; 35° C./100% RH, 1 w): 98.83%
Impurity RRT 0.62 ([3]; 35° C./100% RH, 4 w): 0.09
Impurity RRT 0.95 ([3]; 35° C./100% RH, 4 w): 1.04
Impurity RRT 1.08 ([3]; 35° C./100% RH, 4 w): <0.05
Impurity RRT 1.17 ([3]; 35° C./100% RH, 4 w): 0.17
Sepiapterin RRT 1.00 (amount of sepiapterin) ([3]; 35° C./100% RH, 4 w): 98.70%
Impurity RRT 0.62 ([3]; 50° C./100% RH, 1 w): 0.08
Impurity RRT 0.95 ([3]; 50° C./100% RH, 1 w): 1.05
Impurity RRT 1.08 ([3]; 50° C./100% RH, 1 w): 0.26
Impurity RRT 1.17 ([3]; 50° C./100% RH, 1 w): 0.16
Sepiapterin RRT 1.00 (amount of sepiapterin) ([3]; 50° C./100% RH, 1 w): 98.45%
Impurity RRT 0.62 ([3]; 50° C./100% RH, 4 w): 0.14
Impurity RRT 0.95 ([3]; 50° C./100% RH, 4 w): 2.03
Impurity RRT 1.08 ([3]; 50° C./100% RH, 4 w): <0.05
Impurity RRT 1.17 ([3]; 50° C./100% RH, 4 w): 0.18
Sepiapterin RRT 1.00 (amount of sepiapterin) ([3]; 50° C./100% RH, 4 w): 97.65%
Impurity RRT 1.08 ([3]; Initial): <0.05
Impurity RRT 1.17 ([3]; Initial): 0.17
Impurity RRT 0.62 ([3]; Initial, listed as Polymorph D): <0.05
Impurity RRT 0.95 ([3]; Initial, listed as Polymorph D): 0.69
Sepiapterin RRT 1.00 (amount of sepiapterin) ([3]; Initial, listed as Polymorph D): 99.14%
Sepiapterin RRT 1.00 (amount of sepiapterin) ([3]; Initial, listed as polymorph D): 99.14%
Impurity RRT 0.62 ([3]; RT/100% RH, 1 w): <0.05
Impurity RRT 0.95 ([3]; RT/100% RH, 1 w): 0.83
Impurity RRT 1.08 ([3]; RT/100% RH, 1 w): <0.05
Impurity RRT 1.17 ([3]; RT/100% RH, 1 w): 0.16
Sepiapterin RRT 1.00 (amount of sepiapterin) ([3]; RT/100% RH, 1 w): 99.01%
Impurity RRT 0.62 ([3]; RT/100% RH, 4 w): 0.09
Impurity RRT 0.95 ([3]; RT/100% RH, 4 w): 0.81
Impurity RRT 1.08 ([3]; RT/100% RH, 4 w): <0.05
Impurity RRT 1.17 ([3]; RT/100% RH, 4 w): 0.17
Sepiapterin RRT 1.00 (amount of sepiapterin) ([3]; RT/100% RH, 4 w): 98.92%
stability compared with polymorph A (in words) [3]: significantly greater stability
physical form stability to grinding and sieving [4]: potential instability
SMILES: C[C@H](O)C(=O)C1=Nc2c(nc(N)[nH]c2=O)NC1 [Form D, sepiapterin]

% of Initial ([1]; 35° C., 10% RH, storage 1 week): 99.7%
Purity (area %) ([1]; 35° C., 10% RH, storage 1 week): 99.4 area %
% of Initial [1, 9]: 99.7%
Purity (area %) [1, 9]: 99.4 area %
% of Initial ([1]; 50° C., 10% RH, storage 1 week): 99.4%
Purity (area %) ([1]; 50° C., 10% RH, storage 1 week): 99.2 area %
% of Initial [1, 10]: 99.1%
Purity (area %) [1, 10]: 98.9 area %
% of Initial ([1]; RT, 10% RH, storage 1 week): 99.7%
Purity (area %) ([1]; RT, 10% RH, storage 1 week): 99.4 area %
% of Initial ([1]; RT, 10% RH, storage 4 weeks): 99.8%
Purity (area %) ([1]; RT, 10% RH, storage 4 weeks): 99.5 area %
Form change ([2]; 35° C., 10% RH, storage 1 week): No
Form change [2, 9]: No
Form change ([2]; 50° C., 10% RH, storage 1 week): No
Form change [2, 10]: No
Form change ([2]; RT, 10% RH, storage 1 week): No
Form change ([2]; RT, 10% RH, storage 4 weeks): No
Impurity RRT 0.60 ([3]; 35° C./10% RH, 1 w): <0.05
Impurity RRT 0.95 [3, 11]: 0.35
Impurity RRT 1.08 [3, 11]: 0.06
Impurity RRT 1.17 [3, 11]: 0.15
Sepiapterin RRT 1.00 (amount of sepiapterin) [3, 11]: 99.43%
Impurity RRT 0.60 ([3]; 35° C./10% RH, 4 w): <0.05
Impurity RRT 1.08 ([3]; 35° C./10% RH, 4 w): <0.05
Impurity RRT 0.95 [3, 12]: 0.42
Impurity RRT 1.17 [3, 12]: 0.15
Sepiapterin RRT 1.00 (amount of sepiapterin) [3, 12]: 99.43%
Impurity RRT 0.60 ([3]; 50° C./10% RH, 1 w): <0.05
Impurity RRT 0.95 [3, 13]: 0.58
Impurity RRT 1.08 [3, 13]: 0.11
Impurity RRT 1.17 [3, 13]: 0.15
Sepiapterin RRT 1.00 (amount of sepiapterin) [3, 13]: 99.15%
Impurity RRT 0.60 ([3]; 50° C./10% RH, 4 w): 0.12
Impurity RRT 1.17 ([3]; 50° C./10% RH, 4 w): 0.17
Impurity RRT 0.95 [3, 14]: 0.86
Impurity RRT 1.08 [3, 14]: <0.05
Sepiapterin RRT 1.00 (amount of sepiapterin) [3, 14]: 98.85%
Sepiapterin RRT 1.00 (amount of sepiapterin) ([3]; 50° C./10% RH, 4 w, listed as polymorph F): 98.85%
Impurity RRT 0.60 ([3]; Initial): <0.05
Impurity RRT 1.08 ([3]; Initial): <0.05
Impurity RRT 1.17 ([3]; Initial): 0.17
Impurity RRT 0.95 ([3]; Initial, listed as Polymorph F): 0.09
Sepiapterin RRT 1.00 (amount of sepiapterin) ([3]; Initial, listed as Polymorph F): 99.74%
Sepiapterin RRT 1.00 (amount of sepiapterin) ([3]; Initial, listed as polymorph F): 99.74%
Impurity RRT 0.60 ([3]; RT/10% RH, 1 w): <0.05
Impurity RRT 1.17 ([3]; RT/10% RH, 1 w): 0.16
Impurity RRT 0.95 [3, 15]: 0.29
Impurity RRT 1.08 [3, 15]: 0.14
Sepiapterin RRT 1.00 (amount of sepiapterin) [3, 15]: 99.42%
Impurity RRT 0.60 ([3]; RT/10% RH, 4 w): <0.05
Impurity RRT 1.08 ([3]; RT/10% RH, 4 w): <0.05
Impurity RRT 1.17 ([3]; RT/10% RH, 4 w): 0.16
Impurity RRT 0.95 [3, 16]: 0.30
Sepiapterin RRT 1.00 (amount of sepiapterin) [3, 16]: 99.54%
stability compared with polymorph A (in words) [3]: significantly greater stability
physical form stability to grinding and sieving [4]: confirms the stability
SMILES: C[C@H](O)C(=O)C1=Nc2c(nc(N)[nH]c2=O)NC1 [Form F, sepiapterin]
